Test results: US11655235B2, “Pyrrolidine and piperidine compounds” (YUHAN CORPORATION, priority 2019, dated 2023)

Experiments:
Format in all cases: biochemical
[1] = target: T1, recombinant human DPP8 (Homo sapiens, UniProt Q6V1X1); experiment: DPP8 inhibition, fluorogenic substrate Z-Ala-Pro-AMC; details: recombinant human DPP8
T1 construct: purchased PBS Bioscience
How it was run: (§1)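 Inhibitors are titrated in an 8-point series into the enzyme's assay buffer (DMSO no more than 0.5%). Substrate cleavage at 25 °C is followed by fluorescence, excitation 380 nm and emission 460 nm. IC50 values come from a four-variable logistic model.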

[2] = target: T2, recombinant human DPP9 (Homo sapiens, UniProt Q86TI2); experiment: DPP9 inhibition, fluorogenic substrate H-Gly-Pro-AMC; details: recombinant human DPP9
T2 construct: purchased R&D Systems
T2 sequence (Q86TI2 whole entry): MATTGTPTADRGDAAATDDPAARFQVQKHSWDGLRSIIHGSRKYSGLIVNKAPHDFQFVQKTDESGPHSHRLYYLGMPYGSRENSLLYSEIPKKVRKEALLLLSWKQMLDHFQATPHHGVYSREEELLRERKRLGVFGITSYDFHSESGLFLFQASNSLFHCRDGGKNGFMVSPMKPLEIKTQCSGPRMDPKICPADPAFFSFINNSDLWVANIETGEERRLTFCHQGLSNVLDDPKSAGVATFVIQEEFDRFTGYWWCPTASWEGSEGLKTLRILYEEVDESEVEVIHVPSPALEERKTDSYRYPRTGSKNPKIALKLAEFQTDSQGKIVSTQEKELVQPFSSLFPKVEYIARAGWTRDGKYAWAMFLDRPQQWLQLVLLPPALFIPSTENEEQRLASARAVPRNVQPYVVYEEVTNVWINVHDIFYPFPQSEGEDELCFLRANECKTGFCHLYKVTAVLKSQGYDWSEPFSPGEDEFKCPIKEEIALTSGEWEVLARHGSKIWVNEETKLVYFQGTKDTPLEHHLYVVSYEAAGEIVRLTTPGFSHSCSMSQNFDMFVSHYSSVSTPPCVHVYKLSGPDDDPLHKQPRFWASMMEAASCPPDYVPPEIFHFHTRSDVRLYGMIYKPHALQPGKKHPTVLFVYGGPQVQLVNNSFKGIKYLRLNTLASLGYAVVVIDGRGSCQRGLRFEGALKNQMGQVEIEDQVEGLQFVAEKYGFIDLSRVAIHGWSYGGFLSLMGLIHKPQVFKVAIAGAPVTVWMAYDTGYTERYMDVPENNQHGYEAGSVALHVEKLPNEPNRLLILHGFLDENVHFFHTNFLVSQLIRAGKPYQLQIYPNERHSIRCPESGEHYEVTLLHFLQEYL
How it was run: as §1

[3] = target: T3, recombinant human PREP (Homo sapiens, UniProt P48147); experiment: PREP inhibition, fluorogenic substrate Z-Gly-Pro-AMC; details: Inhibitory Activity (IC50, nM) PREP, recombinant human PREP
T3 construct: purchased R&D System
T3 sequence (P48147 1-710): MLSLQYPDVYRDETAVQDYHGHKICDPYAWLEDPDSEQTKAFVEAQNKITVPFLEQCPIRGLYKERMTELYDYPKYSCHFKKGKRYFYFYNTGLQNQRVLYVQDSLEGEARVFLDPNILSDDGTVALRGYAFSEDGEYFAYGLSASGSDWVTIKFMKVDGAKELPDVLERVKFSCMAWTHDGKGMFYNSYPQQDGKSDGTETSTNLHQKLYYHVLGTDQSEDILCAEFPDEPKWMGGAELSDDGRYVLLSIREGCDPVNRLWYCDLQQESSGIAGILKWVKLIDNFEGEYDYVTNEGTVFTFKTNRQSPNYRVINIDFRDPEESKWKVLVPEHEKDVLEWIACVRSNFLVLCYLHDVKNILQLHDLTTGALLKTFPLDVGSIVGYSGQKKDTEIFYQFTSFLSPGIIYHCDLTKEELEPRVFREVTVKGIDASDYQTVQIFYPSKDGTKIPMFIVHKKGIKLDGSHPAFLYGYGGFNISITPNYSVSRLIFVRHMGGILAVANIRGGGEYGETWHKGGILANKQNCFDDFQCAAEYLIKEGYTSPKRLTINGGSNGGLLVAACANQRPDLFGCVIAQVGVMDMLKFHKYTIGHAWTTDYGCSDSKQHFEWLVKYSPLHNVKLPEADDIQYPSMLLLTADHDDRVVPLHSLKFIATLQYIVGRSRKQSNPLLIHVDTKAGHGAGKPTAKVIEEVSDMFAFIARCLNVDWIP
How it was run: as §1

[4] = target: T4, Recombinant human FAP (Homo sapiens, UniProt Q12884); experiment: FAP FRET assay, FGF21-sequence FRET peptide substrate; details: FRET peptide with human FGF21 sequence, 6 μM, 37° C.
T4 construct: purchased R&D systems
T4 sequence (Q12884 1-760): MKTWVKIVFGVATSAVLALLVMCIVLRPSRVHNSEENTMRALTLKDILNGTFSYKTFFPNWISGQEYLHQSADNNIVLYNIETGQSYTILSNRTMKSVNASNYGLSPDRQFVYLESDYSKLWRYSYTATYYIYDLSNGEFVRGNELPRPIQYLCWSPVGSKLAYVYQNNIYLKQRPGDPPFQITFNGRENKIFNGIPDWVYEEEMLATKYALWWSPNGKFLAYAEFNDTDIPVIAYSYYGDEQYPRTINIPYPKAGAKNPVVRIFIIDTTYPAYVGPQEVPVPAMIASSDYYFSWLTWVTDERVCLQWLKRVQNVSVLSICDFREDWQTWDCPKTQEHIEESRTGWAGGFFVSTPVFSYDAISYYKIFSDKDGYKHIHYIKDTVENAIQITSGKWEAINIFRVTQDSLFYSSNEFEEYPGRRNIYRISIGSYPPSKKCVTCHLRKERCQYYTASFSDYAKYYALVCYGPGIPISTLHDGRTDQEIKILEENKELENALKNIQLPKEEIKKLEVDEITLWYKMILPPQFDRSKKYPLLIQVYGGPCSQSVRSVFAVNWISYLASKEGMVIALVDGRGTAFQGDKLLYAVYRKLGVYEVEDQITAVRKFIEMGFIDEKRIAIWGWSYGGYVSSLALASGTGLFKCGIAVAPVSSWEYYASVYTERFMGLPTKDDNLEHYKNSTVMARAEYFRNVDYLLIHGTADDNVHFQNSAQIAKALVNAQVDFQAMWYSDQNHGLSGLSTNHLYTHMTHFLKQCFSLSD
How it was run: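 FRET peptide bearing human FGF21 sequence (6 μM final) cleaved by 10 ng recombinant human FAP at 37° C in HEPES pH 7.2 buffer with NaCl, BSA and EDTA, DMSO up to 0.1%. Signal-rate decrease versus uninhibited control fitted to a four-variable logistic model for IC50.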

[5] = target: T5, recombinant human DPP7 (Homo sapiens, UniProt Q9UHL4); experiment: DPP7 inhibition, fluorogenic substrate Lys-Pro-AMC; details: recombinant human DPP7
T5 construct: purchased R&D Systems
How it was run: as §1

[6] = target: DPP4 (Homo sapiens, UniProt P27487); experiment: DPP4 inhibition, fluorogenic substrate H-Gly-Pro-AMC; design: purchased R&D Systems; details: recombinant human DPP4
Sequence of DPP4 (P27487 whole entry): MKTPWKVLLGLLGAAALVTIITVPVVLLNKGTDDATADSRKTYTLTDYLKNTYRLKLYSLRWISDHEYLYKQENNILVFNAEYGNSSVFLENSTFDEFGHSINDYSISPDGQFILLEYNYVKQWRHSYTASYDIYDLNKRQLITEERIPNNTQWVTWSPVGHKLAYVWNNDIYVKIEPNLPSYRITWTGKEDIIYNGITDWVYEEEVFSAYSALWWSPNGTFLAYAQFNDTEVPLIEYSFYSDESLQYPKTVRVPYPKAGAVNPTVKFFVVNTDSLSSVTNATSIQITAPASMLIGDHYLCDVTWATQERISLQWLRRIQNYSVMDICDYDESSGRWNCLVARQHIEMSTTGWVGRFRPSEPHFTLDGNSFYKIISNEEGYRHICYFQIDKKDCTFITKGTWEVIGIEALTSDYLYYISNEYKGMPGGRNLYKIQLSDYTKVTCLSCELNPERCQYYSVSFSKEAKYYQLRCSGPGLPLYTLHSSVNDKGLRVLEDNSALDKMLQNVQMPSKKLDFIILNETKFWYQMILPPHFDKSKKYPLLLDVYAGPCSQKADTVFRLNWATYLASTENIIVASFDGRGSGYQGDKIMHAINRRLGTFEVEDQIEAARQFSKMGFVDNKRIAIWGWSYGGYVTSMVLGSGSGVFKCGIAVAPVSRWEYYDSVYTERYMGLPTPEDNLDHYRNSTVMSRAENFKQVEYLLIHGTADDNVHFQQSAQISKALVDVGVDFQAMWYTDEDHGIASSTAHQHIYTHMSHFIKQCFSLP

[7] = target: T4, Recombinant human FAP; experiment: FAP inhibition, fluorogenic substrate Z-Gly-Pro-AMC; details: recombinant human FAP, substrate Z-Gly-Pro-AMC
How it was run: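 Eight-point compound dilutions (≤0.1% DMSO) were incubated at 25° C with 10 ng recombinant human FAP in Tris pH 7.5/1 M NaCl/BSA buffer and Z-Gly-Pro-AMC. Inhibition was taken as % drop in fluorescence rate (380/460 nm) against uninhibited control; IC50 came from a four-parameter logistic fit.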

T1 sequence (Q6V1X1 whole entry): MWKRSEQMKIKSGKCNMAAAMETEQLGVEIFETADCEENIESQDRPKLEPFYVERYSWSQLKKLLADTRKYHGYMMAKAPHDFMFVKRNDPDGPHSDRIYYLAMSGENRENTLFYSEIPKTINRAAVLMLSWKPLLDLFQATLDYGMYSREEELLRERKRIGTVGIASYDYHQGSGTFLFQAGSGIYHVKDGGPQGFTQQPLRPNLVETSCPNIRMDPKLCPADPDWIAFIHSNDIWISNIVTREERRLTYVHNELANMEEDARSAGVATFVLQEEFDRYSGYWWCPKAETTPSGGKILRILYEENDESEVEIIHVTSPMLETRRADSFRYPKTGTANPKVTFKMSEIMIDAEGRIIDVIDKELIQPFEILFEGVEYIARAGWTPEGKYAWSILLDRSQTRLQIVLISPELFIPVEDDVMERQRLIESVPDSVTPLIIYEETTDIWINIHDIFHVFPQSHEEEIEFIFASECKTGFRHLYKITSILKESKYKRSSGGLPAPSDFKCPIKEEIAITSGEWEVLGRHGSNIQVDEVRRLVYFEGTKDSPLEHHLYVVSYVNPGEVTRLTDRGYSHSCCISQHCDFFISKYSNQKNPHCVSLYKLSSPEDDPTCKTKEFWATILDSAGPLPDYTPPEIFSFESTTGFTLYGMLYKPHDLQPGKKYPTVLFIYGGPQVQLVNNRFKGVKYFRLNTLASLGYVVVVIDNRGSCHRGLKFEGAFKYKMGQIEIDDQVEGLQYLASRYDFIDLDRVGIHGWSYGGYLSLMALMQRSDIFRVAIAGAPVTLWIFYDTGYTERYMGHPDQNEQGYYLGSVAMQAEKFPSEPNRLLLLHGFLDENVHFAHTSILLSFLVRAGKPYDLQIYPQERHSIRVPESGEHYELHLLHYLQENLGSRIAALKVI

| IC50 [1] [µM] | IC50 [2] [µM] | IC50 [3] [nM] | IC50 [4] [µM] | IC50 [5] [µM] | IC50 [6] [µM] | IC50 [7] [µM] | SMILES |
| --- | --- | --- | --- | --- | --- | --- | --- |
| 9.85 | 5.72 | 2540 | 0.0024 | 2.9 | 1.85 | – | Cc1cnc2cccc(N(C)[C@H]3CCN(CC(=O)N4C[C@@H](F)C[C@H]4C#N)C3)c2c1 [Example 155, (2S,4S)-4-fluoro-1-[2-[(3S)-3-[methyl-(3-methyl-5-quinolyl)amino]pyrrolidin-1-yl]acetyl]pyrrolidine-2-carbonitrile] |
| 12 | 6.79 | 1020 | 0.0027 | 5.06 | 0.736 | – | CN(c1cccc2ncc(F)cc12)[C@H]1CCN(CC(=O)N2C[C@@H](F)C[C@H]2C#N)C1 [Example 156, (2S,4S)-4-fluoro-1-(2-((S)-3-((3-fluoroquinolin-5-yl)(methyl)amino)pyrrolidin-1-yl)acetyl)pyrrolidine-2-carbonitrile] |
| 8.62 | 3.37 | 1720 | 0.004 | 4.9 | 2.09 | – | CN(c1ccc(F)c2ncccc12)[C@H]1CCN(CC(=O)N2C[C@@H](F)C[C@H]2C#N)C1 [Example 158, (2S,4S)-4-fluoro-1-(2-((S)-3-((8-fluoroquinolin-5-yl)(methyl)amino)pyrrolidin-1-yl)acetyl)pyrrolidine-2-carbonitrile] |
| 7.59 | 3.7 | 430 | 0.0067 | 0.061 | 1.86 | – | CN(c1ccc(C(F)(F)F)c2ncccc12)[C@H]1CCN(CC(=O)N2C[C@@H](F)C[C@H]2C#N)C1 [Example 159, (2S,4S)-4-fluoro-1-[2-[(3S)-3-[methyl-[8-(trifluoromethyl)-5-quinolyl]amino]pyrrolidin-1-yl]acetyl]pyrrolidine-2-carbonitrile] |
| 3.6 | – | – | 0.0024 | 2.27 | 1.04 | 0.0013 | N#C[C@@H]1C[C@H](F)CN1C(=O)CN1CC[C@H](Nc2ccc(F)c3ncccc23)C1 [Example 264, (2S,4S)-4-fluoro-1-[2-[(3S)-3-[(8-fluoro-5-quinolyl)amino]pyrrolidin-1-yl]acetyl]pyrrolidine-2-carbonitrile] |
| 9.92 | 29.4 | 10600 | – | 3.15 | > 10 | 0.0025 | N#C[C@@H]1C[C@H](F)CN1C(=O)CN1CCC(Oc2ccnc3ccc(C(F)(F)F)cc23)CC1 [Example 411, (2S,4S)-4-fluoro-1-[2-[4-[[6-(trifluoromethyl)-4-quinolyl]oxy]-1-piperidyl]acetyl]pyrrolidine-2-carbonitrile] |
| 12 | 69.8 | 1280 | – | 10.7 | > 10 | 0.0059 | N#C[C@@H]1C[C@H](F)CN1C(=O)CN1CCC(Oc2cc(C(F)(F)F)nc3ccccc23)CC1 [Example 412, (2S,4S)-4-fluoro-1-[2-[4-[[2-(trifluoromethyl)-4-quinolyl]oxy]-1-piperidyl]acetyl]pyrrolidine-2-carbonitrile] |
| 18.2 | > 100 | 26500 | – | > 100 | > 10 | 0.003 | N#C[C@@H]1C[C@H](F)CN1C(=O)CN1CCC(Oc2cc(C(F)(F)F)nc3ccc(F)cc23)CC1 [Example 413, (2S,4S)-4-fluoro-1-[2-[4-[[6-fluoro-2-(trifluoromethyl)-4-quinolyl]oxy]-1-piperidyl]acetyl]pyrrolidine-2-carbonitrile] |
| 44 | > 100 | 57500 | – | 8.74 | > 10 | 0.0043 | COc1ccc2nc(C(F)(F)F)cc(OC3CCN(CC(=O)N4C[C@@H](F)C[C@H]4C#N)CC3)c2c1 [Example 414, (2S,4S)-4-fluoro-1-[2-[4-[[6-methoxy-2-(trifluoromethyl)-4-quinolyl]oxy]-1-piperidyl]acetyl]pyrrolidine-2-carbonitrile] |
| 16.5 | 39.4 | 1410 | – | 13.5 | > 10 | 0.0064 | COc1cccc2c(OC3CCN(CC(=O)N4C[C@@H](F)C[C@H]4C#N)CC3)cc(C(F)(F)F)nc12 [Example 415, (2S,4S)-4-fluoro-1-[2-[4-[[8-methoxy-2-(trifluoromethyl)-4-quinolyl]oxy]-1-piperidyl]acetyl]pyrrolidine-2-carbonitrile] |
| 9.39 | 23 | 1100 | – | 2.02 | > 10 | 0.0081 | N#C[C@@H]1C[C@H](F)CN1C(=O)CN1CCC(Oc2nccc3ccccc23)CC1 [Example 419, (2S,4S)-4-fluoro-1-[2-[4-(1-isoquinolyloxy)-1-piperidyl]acetyl]pyrrolidine-2-carbonitrile] |
| 8.59 | 22.1 | 1740 | – | 2.08 | > 10 | 0.007 | N#C[C@@H]1C[C@H](F)CN1C(=O)CN1CCC(Oc2cncc3ccccc23)CC1 [Example 420, (2S,4S)-4-fluoro-1-[2-[4-(4-isoquinolyloxy)-1-piperidyl]acetyl]pyrrolidine-2-carbonitrile] |
| 1.58 | 4.16 | 2610 | – | > 100 | 7.53 | 0.0025 | N#C[C@@H]1C[C@H](F)CN1C(=O)CN1CCC(Oc2cccc3cnccc23)CC1 [Example 421, (2S,4S)-4-fluoro-1-[2-[4-(5-isoquinolyloxy)-1-piperidyl]acetyl]pyrrolidine-2-carbonitrile] |
| 6.42 | 10.3 | 1410 | – | 1.22 | > 10 | 0.0114 | N#C[C@@H]1C[C@H](F)CN1C(=O)CN1CCC(Oc2ccc3cnccc3c2)CC1 [Example 422, (2S,4S)-4-fluoro-1-[2-[4-(6-isoquinolyloxy)-1-piperidyl]acetyl]pyrrolidine-2-carbonitrile] |
| 3.46 | 9.33 | 990 | – | 2.05 | 8.99 | 0.0093 | N#C[C@@H]1C[C@H](F)CN1C(=O)CN1CCC(Oc2ccc3ccncc3c2)CC1 [Example 423, (2S,4S)-4-fluoro-1-[2-[4-(7-isoquinolyloxy)-1-piperidyl]acetyl]pyrrolidine-2-carbonitrile] |
